# Where “and” joins values, the source holds several entries; their conditions need not be identical. Equal entries are not always repeated.
# Experiment: Liver microsomes stability and metabolite identification (LC-MS), human
# Format: in vitro ADME
# From the text: The objective of this study is to analyze in vitro samples of Compound A and Compound B from rat and human microsomes using liquid chromatography quadrupole ion trap mass spectrometry and identify the nature of the metabolite(s) for each species.
# The HPLC system consisted of a Thermo Surveror autosampler and a Thermo Surveyor MS pump (San Jose, Calif., USA). The LC-MS/MS system used was a Thermo LCQ Advantage (San Jose, Calif., USA). Data was acquired on a Dell Optiplex desktop computer (Round Rock, Tex., USA) equipped with operation system Windows XP professional. Data acquisition and analysis were performed using XCalibur 1.4 (San Jose, Calif., USA).
# After the incubation period of the liver microsomes, the reaction was stopped with the addition of acetonitrile and frozen for transport. Before analysis, the samples were thawed at room temperature. They were vortexed vigorously and centrifuged at approximately 12000 g for 10 minutes. The supernatant was transferred into an injection vial for analysis.
# A gradient mobile phase was used with a Thermo Phenyl 100×2 mm column with particle size of 5 μm. The initial mobile phase condition consisted of methanol and 0.1% formic acid solution at a ratio of 20:80, respectively. From 0 to 2 minutes, the ratio was maintained at 20:80. From 2 to 10 minutes, a linear gradient was applied and a ratio of 90:10 was maintained from 10 to 12 minutes. […] The flow rate was fixed at 0.25 mL/min.
# The mass spectrometer was interfaced with the HPLC system using a pneumatic assisted electrospray ion source. The sheath gas was set to 15 units and the ESI electrode was set to 4000 V (positive mode). The capillary temperature was set at 300° C., and the capillary voltage was set to 13 V. The mass spectrometer was operating in full scan MS mode using one segment analysis (200-800).
# [1] = human microsomes 60 min (samples 14-16)
smiles,measurement,setting,value
"COc1ccc(F)cc1-c1cc2c(c3c1CCN(C)C3)NC(=O)C2=NO [Compound A, 5-(5-fluoro-2-methoxyphenyl)-6,7,8,9-tetrahydro-3-(hydroxyimino)-8-methyl-1H-pyrrolo[3,2-h]isoquinoline-2(3H)-one]",Total % metabolites,"% peak area relative to parent at T0, 60 min incubation, human microsomes",8.08%
same,Compound A metabolite identification: m/z 342,[1],Yes
same,Compound A metabolite identification: m/z 356 (parent),[1],Yes
same,Compound A metabolite identification: m/z 372,[1],Yes
same,Compound A metabolite identification: m/z 412,[1],no
same,Calc. Conc.,"human microsomes, time 0 min",4.91 µM and 6.54 µM
same,Calc. Conc.,"human microsomes, time 60 min",3.84 µM and 3.83 µM and 3.77 µM

# Reference: US20090246134A1, “COMPOSITIONS AND METHODS FOR MODULATING GATED ION CHANNELS” (PainCeptor Pharma Corporation, priority 2007, published 2009)
